From patent publication US11219607B2, “Methods for suppressing cancer-related cachexia” (Ohio State Innovation Foundation, priority 2013, dated 2022)

Legend:
[1] = test system: gastrocnemius muscle fibers of C-26 tumor-bearing mice; experiment: Morphometric analysis of muscle fiber size, C-26 model; format: in vivo, CD2F1 mice; settings: day 15, tumor-bearing/vehicle 1297.6±638.8, tumor-free control 2503.5±917.5, mean±S.D.
Protocol: Ten-μm sections were cut from frozen skeletal muscle samples using a cryostat (Leica) and then stained with H&E. Images were captured using an Olympus BX51 microscope (Olympus America, Inc.) and muscle fiber cross-sectional areas were determined using Olympus CellSens 1.11 software. Measurements were obtained from five different sections of muscle from each of five mice from each group.
The protective effect of AR-42 against muscle wasting was manifested by the abrogation of cachexia-induced reduction in skeletal muscle fiber size. […] The prominent shift in fiber size distribution to smaller cross-sectional area in cachectic muscles of tumor-bearing/vehicle mice was reversed by AR-42 (FIG. 2A, right)

LLC tumor-bearing mice = experiment: LLC mouse model of cachexia, hindlimb muscle mass; format: in vivo; settings: LLC tumor-bearing C57BL/6 mice, 50 mg/kg p.o. every other day, day 6 to day 20
Protocol: In another aspect, subcutaneous tumors were established in male C57BL/6 mice (approximately 6 weeks of age; Harlan) by injection of 0.5×10^6 LLC cells into the right flank. Treatment with AR-42 and vehicle was performed as for the C-26 model beginning 6 days after cell injection. In both models, body weights and food consumption were monitored daily and tumor size was measured no less than every two days. Mice were fasted for 2 hours prior to sacrifice, at which time, hind limb muscles, heart, spleen, epididymal fat, and blood were collected and the weights of the solid tissues were measured. Muscle samples were frozen in liquid nitrogen-chilled 2-methylbutane and then stored at −80° C. until analysis.
(§1) To confirm that the anti-cachectic activity of AR-42 was not specific to the C-26 model, it was also evaluated in the LLC model. C57BL/6 mice bearing subcutaneous LLC tumors were treated with AR-42 (50 mg/kg, p.o., every other day) starting on day 6 after tumor cell injection, and continuing until day 20 when hind limb muscles were harvested at sacrifice.
as §1, with “subcutaneous […]” for “subcutaneous”

[2] = test system: IL-6 receptor alpha chain (IL-6Rα) mRNA; experiment: qPCR of skeletal muscle, C-26 model: IL-6Rα; format: in vivo, CD2F1 mice; settings: muscle of C-26 tumor-bearing mice; tumor-bearing/vehicle 13±1.4-fold
Protocol: (§2) Total RNA was isolated from homogenized gastrocnemius muscles (n=3/group) with TRIzol reagent (Life Technologies, Carlsbad, Calif.) and then purified using the RNAeasy Mini Kit (Qiagen, Valencia, Calif.). qRT-PCR was performed as described previously (42) by using the Bio-Rad CFX96 Real-Time PCR Detection System with iQ SYBR Green Supermix (Bio-Rad, Hercules, Calif.). RNA-seq library generation and data analysis were performed at The Ohio State University Comprehensive Cancer Center (OSUCCC) Nucleic Acid Shared Resource.
Cytokine profiles. […] AR-42 reduced IL-6 and LIF levels by 56% and 88%, respectively, in tumor-bearing mice (IL-6, 102±38 pg/ml; LIF, 3.8±1.6 pg/ml) compared to the vehicle-treated counterparts. In light of the ability of AR-42 to blunt cachexia-associated increases in IL-6, we examined the effect of AR-42 on intramuscular mRNA levels of IL-6 receptor alpha chain (IL-6Rα). […] AR-42 reduced this cachexia-induced increase by 85% (2.0±0.2-fold; n=10)(FIG. 5, lower).

[3] = test system: global gene expression in muscle of C-26 tumor-bearing mice; experiment: RNA-seq of gastrocnemius muscle, C-26 model; format: in vivo, CD2F1 mice
Protocol: as §2
Data analysis was conducted by using SAS 9.3 software (SAS, Inc; Cary, N.C.). For the experiments with repeated measures, data were analyzed by mixed effect models, incorporating observational dependencies across each subject. For other experiments involving independent groups, data were analyzed by ANOVA. For the time-to-event experiment (FIG. 2B), the difference in survival functions were compared by log-rank tests. Multiplicities were adjusted by Holm's method to control the overall family-wise error rate at 0.05. RNA-seq data were analyzed by using Ingenuity Pathway Analysis (IPA) software (Ingenuity Systems, Redwood City, Calif.). Only genes with >4-fold change and P<0.05 were selected for pathway analysis. […]
RNA quality was assessed on an Agilent 2100 Bioanalyzer using a Pico RNA chip and the input total RNA amount was assessed using Agilent Qubit RNA assay. […] The resultant libraries were assessed for quantity and quality using Agilent Qubit DNA assay and with PerkinElmer Labchip DNA GX analysis, respectively. All libraries were mixed in equal proportions generating pools of samples that would yield approximately 40 million passed filter reads when sequenced on Illumina HiSeq 2500 sequencer. The raw sequencing data from the Illumina HiSeq CASAVA pipeline were assessed for quality using FastQC, RNASeQC and RSeQC software. […]

C-26 tumor-bearing mice = experiment: Delayed treatment in the C-26 model (body weight, tumor growth); format: in vivo, CD2F1 mice
Protocol: In one aspect, tumors were established by subcutaneous injection of C-26 cells (0.5×10^6 cells in 0.1 ml) into the right flank of male CD2F1 mice (approximately 6 weeks of age; Harlan Laboratories, Indianapolis, Ind.)(11). Tumor-bearing mice, as well as tumor-free mice serving as non-cachectic controls, were randomized into groups that were treated with either AR-42 (50 mg/kg, p.o. by gavage, every other day; Arno Therapeutics, Inc., Flemington, N.J.) or vehicle (0.5% methylcellulose (w/v) and 0.1% Tween-80 (v/v) in sterile water) starting 6 days after cell injection. To investigate the effect of delayed treatment, treatments with drug and/or vehicle were started 6, 10 and 12 days after cancer cell injection.
In those experiments, treatment was initiated early in the progression of cachexia when overt signs of wasting were undetectable. To investigate whether later initiation of AR-42 treatment remains protective against cachexia, C-26 tumor-bearing mice were treated with AR-42 (50 mg/kg, p.o., every other day) starting at 6, 10 and 12 days after tumor cell injection.

[4] = 50 mg/kg p.o. every other day, vehicle 19%

CC(C)[C@H](C(=O)Nc1ccc(C(=O)NO)cc1)c1ccccc1 [AR-42, (S)—N-hydroxy-4-(3-methyl-2-phenylbutanamido)benzamide]
mean cross-sectional area of muscle fibers [1]: 2146.3±923.4 μm^2
tibialis anterior mass, % of non-cachectic control (LLC tumor-bearing mice; vehicle 80.3±4.0%): 93.4±3.9%
gastrocnemius mass, % of non-cachectic control (LLC tumor-bearing mice; vehicle 81.7±3.7%): 92.2±3.5%
quadriceps mass, % of non-cachectic control (LLC tumor-bearing mice; vehicle 84.4±4.6%): 93.4±4.8%
IL-6Rα mRNA level compared to tumor-free mice [2]: 2.0±0.2 fold
number of downregulated genes (4-fold or greater), AR-42- versus vehicle-treated tumor-bearing mice [3]: 301 genes
number of upregulated genes (4-fold or greater), AR-42- versus vehicle-treated tumor-bearing mice [3]: 376 genes
number of genes with 4-fold or greater differential expression, AR-42- versus vehicle-treated tumor-bearing mice ([3]; total): 677 genes
loss of body weight (tumor excluded) by day 17, treatment starting at day 6 (C-26 tumor-bearing mice; [4]): 6%
loss of body weight (tumor excluded) by day 17, treatment starting at day 10 (C-26 tumor-bearing mice; [4]): 11%
loss of body weight (tumor excluded) by day 17, treatment starting at day 12 (C-26 tumor-bearing mice; [4]): 12%
effect on tumor growth, delayed treatment experiment (C-26 tumor-bearing mice; treatment from day 6, 10 or 12): without appreciable effects
